Measured values reported in PMC10686828, “DMSOP-cleaving enzymes are diverse and widely distributed in marine microorganisms” (Nature Microbiology, 2023).

Columns and labels:
[1] = biological target: T1, DddY (Acinetobacter bereziniae) (Acinetobacter bereziniae, UniProt N8X9V6); assay: HPLC of DMSO and acrylate; type: biochemical; settings: 5 mM DMSOP, pH 8.0, 30 °C
T1 construct: gene F963_02809; pET-22b, C-terminal His tag, E. coli BL21(DE3); Ni-NTA and gel filtration
T1 sequence (N8X9V6 22-401 limits assumed): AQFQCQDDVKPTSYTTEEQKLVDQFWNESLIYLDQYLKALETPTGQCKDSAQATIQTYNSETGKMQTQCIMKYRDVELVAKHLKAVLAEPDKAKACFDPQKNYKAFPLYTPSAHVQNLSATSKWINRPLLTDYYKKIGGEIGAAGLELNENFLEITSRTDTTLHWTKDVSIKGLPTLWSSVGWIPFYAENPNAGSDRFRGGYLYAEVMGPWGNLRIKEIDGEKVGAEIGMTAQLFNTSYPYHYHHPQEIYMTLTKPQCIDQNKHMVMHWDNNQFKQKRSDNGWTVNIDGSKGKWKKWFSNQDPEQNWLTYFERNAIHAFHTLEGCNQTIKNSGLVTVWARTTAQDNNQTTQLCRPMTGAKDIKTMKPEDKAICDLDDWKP

DddL = test system: T2, DddL; assay: HPLC of acrylate, initial rates, non-linear fit; type: biochemical; settings: pH 8, 30 °C
T2 construct: pET-22b, C-terminal His tag, E. coli BL21(DE3)

SMILES: C[S+](C)(=O)CCC(=O)[O-] [DMSOP]
- HPLC of DMSO and acrylate [1]: purified DddY proteins yielded DMSO and acrylate from DMSOP
- Km (DddL): 65 ± 10.9 mM
